A short description of series [1]: Single dose IP pharmacokinetic study in mice. In kind it is in vivo, CD-1 mice. Particulars: mouse, 10 mg/kg IP, plasma at 0.5, 1, 3, 8 h. How it is done: CD-1 mice with weights 23–25 g were purchased from Charles River Laboratories.
The animal experiments were performed at Alliance Pharma (Malvern, PA, USA) in accordance with the guide for the care and use of laboratory animals. Alliance Pharma is accredited by the Association for Assessment and Accreditation of Laboratory Animal Care (AAALAC).
The test compounds were dissolved in DMSO and then diluted to the appropriate concentration with the vehicle. For formulation we targeted the minimal amount of DMSO that could be used in combination with a formulation composed of 0.5% HPMC/0.2% Polysorbate 80. […] Blood was collected at t = 0.5, 1, 3, and 8 h and immediately spun for 3 min, the plasma was collected, and compound levels were quantified with HPLC/MS. The raw data are available in the Supplemental Information.
With the probe molecule having favorable selectivity and potency in vitro and in a cellular context, we next wanted to determine its suitability for in vivo experiments. SGC-CAMKK2-1 (5) was progressed to a single dose mouse intraperitoneal (I.P) experiment.

Another series concerns the target T1, PKAC-alpha (Homo sapiens, UniProt P17612).
T1 construct: purchased Eurofins DiscoverX KINOMEscan
Briefly: DiscoverX KINOMEscan binding assay at 1 μM, PKAC-alpha. Particulars: PKAC-alpha (PRKACA); Compound Concentration 1000 nM; read-out: Percent Control. An excerpt:
(§1) Supplement cells-12-00287-s001.zip/File S2. KinomeScan data for the CAMKK2 probe and negative control.xlsx, sheet "SGC-CAMKK2-1" | column: Percent Control

The next series addresses T2, TAOK3 (Homo sapiens, UniProt Q9H2K8).
T2 construct: purchased Eurofins DiscoverX KINOMEscan
Description: KINOMEscan 1 μM, TAOK3. In kind it is binding. To be noted: 1000 nM; Entrez TAOK3; read-out: Percent Control.
Source text: as §1

The target in series [2] is T3, EGFR(L747-E749del, A750P) (Homo sapiens, UniProt P00533, A750P/DEL747-749).
T3 construct: purchased Eurofins DiscoverX KINOMEscan
Description: KINOMEscan 1 μM, EGFR(L747-E749del, A750P). Format: binding. To be noted: 1000 nM; Entrez EGFR; read-out: Percent Control.
Source text: as §1

The target of another series is T4, PCTK2 (Homo sapiens, UniProt Q00537).
T4 construct: purchased Eurofins DiscoverX KINOMEscan
Briefly: DiscoverX KINOMEscan binding assay at 1 μM, PCTK2. Particulars: PCTK2 (CDK17); Compound Concentration 1000 nM; read-out: Percent Control.
Source text: as §1

The target in another series is T5, MTOR (Homo sapiens, UniProt P42345).
T5 construct: purchased Eurofins DiscoverX KINOMEscan
Description: KINOMEscan 1 μM, MTOR. Format: binding. To be noted: 1000 nM; Entrez MTOR; read-out: Percent Control.
Source text: as §1

The target in series [3] is T6, RSK3(Kin.Dom.1-N-terminal) (Homo sapiens, UniProt Q15349).
T6 construct: RSK3(Kin.Dom.1-N-terminal); purchased Eurofins DiscoverX KINOMEscan
Description: KINOMEscan 1 μM, RSK3(Kin.Dom.1-N-terminal). In kind it is binding. Particulars: 1000 nM; Entrez RPS6KA2; read-out: Percent Control.
Source text: as §1

A further series has as its target T7, BLK (Homo sapiens, UniProt P51451).
T7 construct: purchased Eurofins DiscoverX KINOMEscan
Description: KINOMEscan 1 μM, BLK. In kind it is binding. To be noted: 1000 nM; Entrez BLK; read-out: Percent Control.
Source text: as §1

The next series has as its target T8, DAPK2 (Homo sapiens, UniProt Q9UIK4).
T8 construct: purchased Eurofins DiscoverX KINOMEscan
Briefly: KINOMEscan 1 μM, DAPK2. In kind it is binding. Particulars: 1000 nM; Entrez DAPK2; read-out: Percent Control.
Source text: as §1

A further series addresses T9, PRKCI (Homo sapiens, UniProt P41743).
T9 construct: purchased Eurofins DiscoverX KINOMEscan
Description: DiscoverX KINOMEscan binding assay at 1 μM, PRKCI. To be noted: Compound Concentration 1000 nM, read-out: Percent Control.
Source text: as §1

A further series deals with T10, ABL2 (Homo sapiens, UniProt P42684).
T10 construct: purchased Eurofins DiscoverX KINOMEscan
Briefly: KINOMEscan 1 μM, ABL2. In kind it is binding. Particulars: 1000 nM; Entrez ABL2; read-out: Percent Control.
Source text: as §1

The target in another series is T11, STK33 (Homo sapiens, UniProt Q9BYT3).
T11 construct: purchased Eurofins DiscoverX KINOMEscan
Description: KINOMEscan binding assay at 1 μM, STK33. To be noted: Compound Concentration 1000 nM; read-out: Percent Control. An excerpt:
(§2) Supplement cells-12-00287-s001.zip/File S2. KinomeScan data for the CAMKK2 probe and negative control.xlsx, sheet "SGC-CAMKK2-1N" | column: Percent Control

A further series has as its target T12, CDK11 (Homo sapiens, UniProt Q9BWU1).
T12 construct: purchased Eurofins DiscoverX KINOMEscan
Briefly: KINOMEscan at 1 μM, CDK11. In kind it is binding. To be noted: 1000 nM, read-out: Percent Control.
Source text: as §2

For another series, the target named is T13, ERBB3 (Homo sapiens, UniProt P21860).
T13 construct: purchased Eurofins DiscoverX KINOMEscan
Description: KINOMEscan at 1 μM, ERBB3. To be noted: 1000 nM, read-out: Percent Control. In kind it is binding.
Source text: as §2

In another series the target is T14, YANK3 (Homo sapiens, UniProt Q86UX6).
T14 construct: purchased Eurofins DiscoverX KINOMEscan
Briefly: KINOMEscan at 1 μM, YANK3. Particulars: 1000 nM, read-out: Percent Control. In kind it is binding.
Source text: as §2

Another series addresses T15, SRPK3 (Homo sapiens, UniProt Q9UPE1).
T15 construct: purchased Eurofins DiscoverX KINOMEscan
Description: KINOMEscan binding assay at 1 μM, SRPK3. To be noted: Compound Concentration 1000 nM; read-out: Percent Control.
Source text: as §2

Series [4] has as its target T16, TYK2(JH1domain-catalytic) (Homo sapiens, UniProt P29597).
T16 construct: TYK2(JH1domain-catalytic); purchased Eurofins DiscoverX KINOMEscan
Briefly: KINOMEscan at 1 μM, TYK2(JH1domain-catalytic). In kind it is binding. To be noted: 1000 nM, read-out: Percent Control.
Source text: as §2

A further series deals with T17, PRKCQ (Homo sapiens, UniProt Q04759).
T17 construct: purchased Eurofins DiscoverX KINOMEscan
Description: KINOMEscan binding assay at 1 μM, PRKCQ. Particulars: Compound Concentration 1000 nM; read-out: Percent Control.
Source text: as §2

The next series addresses T18, ACVR1 (Homo sapiens, UniProt Q04771).
T18 construct: purchased Eurofins DiscoverX KINOMEscan
Description: KINOMEscan at 1 μM, ACVR1. Format: binding. To be noted: 1000 nM, read-out: Percent Control.
Source text: as §2

The next series concerns the target T19, TAOK2 (Homo sapiens, UniProt Q9UL54).
T19 construct: purchased Eurofins DiscoverX KINOMEscan
Description: KINOMEscan at 1 μM, TAOK2. Particulars: 1000 nM, read-out: Percent Control. Format: binding.
Source text: as §2

The target of the next series is T20, MLK1 (Homo sapiens, UniProt P80192).
T20 construct: purchased Eurofins DiscoverX KINOMEscan
Briefly: KINOMEscan at 1 μM, MLK1. In kind it is binding. To be noted: 1000 nM, read-out: Percent Control.
Source text: as §2

In the next series the target is T21, JNK1 (Homo sapiens, UniProt P45983).
T21 construct: purchased Eurofins DiscoverX KINOMEscan
Briefly: KINOMEscan at 1 μM, JNK1. Particulars: 1000 nM, read-out: Percent Control. Format: binding.
Source text: as §2

For another series, the target named is T22, PAK2 (Homo sapiens, UniProt Q13177).
T22 construct: purchased Eurofins DiscoverX KINOMEscan
Briefly: KINOMEscan at 1 μM, PAK2. To be noted: 1000 nM, read-out: Percent Control. In kind it is binding.
Source text: as §2

In a further series the target is T23, ACVR2A (Homo sapiens, UniProt P27037).
T23 construct: purchased Eurofins DiscoverX KINOMEscan
Briefly: KINOMEscan at 1 μM, ACVR2A. Particulars: 1000 nM, read-out: Percent Control. Format: binding.
Source text: as §2

In another series the target is T24, PDGFRB (Homo sapiens, UniProt P09619).
T24 construct: purchased Eurofins DiscoverX KINOMEscan
Description: KINOMEscan at 1 μM, PDGFRB. Format: binding. To be noted: 1000 nM, read-out: Percent Control.
Source text: as §2

A further series addresses T25, MST2 (Homo sapiens, UniProt Q13188).
T25 construct: purchased Eurofins DiscoverX KINOMEscan
Briefly: KINOMEscan at 1 μM, MST2. Format: binding. To be noted: 1000 nM, read-out: Percent Control.
Source text: as §2

The target of series [5] is T26, ABL1(M351T)-phosphorylated (Homo sapiens, UniProt P00519, M351T).
T26 construct: purchased Eurofins DiscoverX KINOMEscan
Briefly: KINOMEscan at 1 μM, ABL1(M351T)-phosphorylated. Format: binding. To be noted: 1000 nM, read-out: Percent Control.
Source text: as §2

The next series deals with T27, LATS1 (Homo sapiens, UniProt O95835).
T27 construct: purchased Eurofins DiscoverX KINOMEscan
Description: KINOMEscan at 1 μM, LATS1. In kind it is binding. To be noted: 1000 nM, read-out: Percent Control.
Source text: as §2

Series [6] has as its target T28, EGFR(L747-S752del, P753S) (Homo sapiens, UniProt P00533, DEL747-752/P753S).
T28 construct: purchased Eurofins DiscoverX KINOMEscan
Briefly: KINOMEscan binding assay at 1 μM, EGFR(L747-S752del, P753S). To be noted: Compound Concentration 1000 nM; read-out: Percent Control.
Source text: as §2

T6 sequence (Q15349 1-388 limits assumed): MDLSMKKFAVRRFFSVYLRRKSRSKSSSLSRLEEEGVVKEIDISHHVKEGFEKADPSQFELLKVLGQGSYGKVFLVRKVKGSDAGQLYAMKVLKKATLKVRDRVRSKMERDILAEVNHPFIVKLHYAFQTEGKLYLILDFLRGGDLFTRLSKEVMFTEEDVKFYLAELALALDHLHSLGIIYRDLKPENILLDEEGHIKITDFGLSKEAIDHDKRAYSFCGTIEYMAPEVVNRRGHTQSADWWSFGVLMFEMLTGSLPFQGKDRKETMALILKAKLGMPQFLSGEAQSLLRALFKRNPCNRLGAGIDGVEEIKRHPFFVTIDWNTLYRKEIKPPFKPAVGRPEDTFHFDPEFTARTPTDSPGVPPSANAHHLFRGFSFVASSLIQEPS
T7 sequence (P51451 whole entry): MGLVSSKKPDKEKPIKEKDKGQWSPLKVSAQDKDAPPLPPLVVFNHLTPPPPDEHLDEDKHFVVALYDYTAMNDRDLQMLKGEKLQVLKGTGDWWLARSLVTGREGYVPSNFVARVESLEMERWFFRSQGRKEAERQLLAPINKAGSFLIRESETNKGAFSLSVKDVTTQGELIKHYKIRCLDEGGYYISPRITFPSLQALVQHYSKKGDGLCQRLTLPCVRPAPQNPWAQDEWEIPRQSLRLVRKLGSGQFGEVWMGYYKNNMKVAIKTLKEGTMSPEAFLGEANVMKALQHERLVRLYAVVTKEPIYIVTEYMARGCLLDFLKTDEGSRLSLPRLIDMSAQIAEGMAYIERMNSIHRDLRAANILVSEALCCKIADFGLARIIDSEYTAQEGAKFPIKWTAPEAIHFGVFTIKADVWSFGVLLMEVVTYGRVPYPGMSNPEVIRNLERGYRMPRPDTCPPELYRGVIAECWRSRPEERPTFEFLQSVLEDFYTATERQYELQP
T18 sequence (Q04771 21-509): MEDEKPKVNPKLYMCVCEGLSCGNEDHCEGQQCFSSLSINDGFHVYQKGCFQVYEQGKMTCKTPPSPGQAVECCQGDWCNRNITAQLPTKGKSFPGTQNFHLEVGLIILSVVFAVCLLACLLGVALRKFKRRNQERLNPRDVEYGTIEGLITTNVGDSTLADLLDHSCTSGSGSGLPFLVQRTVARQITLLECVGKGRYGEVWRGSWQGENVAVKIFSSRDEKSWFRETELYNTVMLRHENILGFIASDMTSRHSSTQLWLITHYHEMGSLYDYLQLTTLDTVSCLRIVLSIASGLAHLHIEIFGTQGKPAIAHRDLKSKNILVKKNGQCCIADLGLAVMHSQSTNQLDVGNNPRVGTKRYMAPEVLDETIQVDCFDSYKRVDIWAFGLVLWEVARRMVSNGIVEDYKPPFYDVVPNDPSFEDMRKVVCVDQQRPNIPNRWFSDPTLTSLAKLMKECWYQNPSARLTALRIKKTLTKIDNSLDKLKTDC
T24 sequence (P09619 33-1106): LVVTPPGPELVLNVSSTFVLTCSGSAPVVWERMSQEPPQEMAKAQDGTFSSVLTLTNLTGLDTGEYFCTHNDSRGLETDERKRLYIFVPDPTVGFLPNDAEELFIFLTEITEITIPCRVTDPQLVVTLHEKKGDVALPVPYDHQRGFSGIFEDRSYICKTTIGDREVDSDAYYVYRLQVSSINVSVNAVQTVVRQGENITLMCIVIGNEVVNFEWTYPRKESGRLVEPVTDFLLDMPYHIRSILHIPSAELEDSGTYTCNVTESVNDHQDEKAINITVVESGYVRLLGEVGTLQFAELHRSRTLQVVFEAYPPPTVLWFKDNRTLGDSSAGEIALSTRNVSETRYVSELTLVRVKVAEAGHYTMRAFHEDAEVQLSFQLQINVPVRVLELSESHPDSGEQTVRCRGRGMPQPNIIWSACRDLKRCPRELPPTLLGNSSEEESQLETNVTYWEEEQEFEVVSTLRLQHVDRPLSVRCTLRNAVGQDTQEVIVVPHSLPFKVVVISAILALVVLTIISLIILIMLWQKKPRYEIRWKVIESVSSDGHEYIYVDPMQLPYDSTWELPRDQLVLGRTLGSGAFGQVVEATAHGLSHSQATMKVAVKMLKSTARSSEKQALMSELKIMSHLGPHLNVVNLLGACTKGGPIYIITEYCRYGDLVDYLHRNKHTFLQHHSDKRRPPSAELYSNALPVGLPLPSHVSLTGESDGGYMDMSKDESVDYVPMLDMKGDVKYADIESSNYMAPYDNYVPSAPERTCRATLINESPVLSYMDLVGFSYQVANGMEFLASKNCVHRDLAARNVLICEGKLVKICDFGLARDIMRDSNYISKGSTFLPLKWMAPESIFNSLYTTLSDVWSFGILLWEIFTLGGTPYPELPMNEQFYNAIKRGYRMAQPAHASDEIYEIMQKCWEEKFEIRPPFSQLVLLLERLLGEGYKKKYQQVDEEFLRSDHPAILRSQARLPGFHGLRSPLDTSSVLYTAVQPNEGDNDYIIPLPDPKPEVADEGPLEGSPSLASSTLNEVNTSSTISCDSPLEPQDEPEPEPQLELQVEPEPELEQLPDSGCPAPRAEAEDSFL
T2 sequence (Q9H2K8 whole entry): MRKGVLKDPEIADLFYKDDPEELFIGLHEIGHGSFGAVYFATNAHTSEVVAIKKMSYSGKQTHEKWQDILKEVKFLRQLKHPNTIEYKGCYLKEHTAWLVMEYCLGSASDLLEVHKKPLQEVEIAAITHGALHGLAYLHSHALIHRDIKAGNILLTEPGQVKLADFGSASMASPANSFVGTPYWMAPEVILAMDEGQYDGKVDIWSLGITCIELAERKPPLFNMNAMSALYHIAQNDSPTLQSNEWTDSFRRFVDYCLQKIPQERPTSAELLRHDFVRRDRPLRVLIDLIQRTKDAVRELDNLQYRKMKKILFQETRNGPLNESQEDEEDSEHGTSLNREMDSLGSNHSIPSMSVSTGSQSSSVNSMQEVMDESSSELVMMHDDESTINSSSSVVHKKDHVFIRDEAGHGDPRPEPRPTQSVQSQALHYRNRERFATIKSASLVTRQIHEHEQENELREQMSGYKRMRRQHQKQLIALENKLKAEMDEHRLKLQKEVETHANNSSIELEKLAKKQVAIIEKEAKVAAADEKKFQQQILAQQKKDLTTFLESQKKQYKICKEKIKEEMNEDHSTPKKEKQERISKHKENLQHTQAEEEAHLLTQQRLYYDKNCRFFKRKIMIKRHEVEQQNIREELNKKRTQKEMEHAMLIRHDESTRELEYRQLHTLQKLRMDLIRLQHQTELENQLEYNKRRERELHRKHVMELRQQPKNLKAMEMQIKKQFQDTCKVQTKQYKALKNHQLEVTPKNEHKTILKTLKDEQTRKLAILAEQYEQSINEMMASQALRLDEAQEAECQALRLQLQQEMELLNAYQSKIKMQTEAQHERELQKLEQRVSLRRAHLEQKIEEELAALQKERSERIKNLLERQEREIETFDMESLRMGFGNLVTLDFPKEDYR
T3 sequence (P00533 with tags, fused parts or gaps DEL747-749/A750P limits assumed): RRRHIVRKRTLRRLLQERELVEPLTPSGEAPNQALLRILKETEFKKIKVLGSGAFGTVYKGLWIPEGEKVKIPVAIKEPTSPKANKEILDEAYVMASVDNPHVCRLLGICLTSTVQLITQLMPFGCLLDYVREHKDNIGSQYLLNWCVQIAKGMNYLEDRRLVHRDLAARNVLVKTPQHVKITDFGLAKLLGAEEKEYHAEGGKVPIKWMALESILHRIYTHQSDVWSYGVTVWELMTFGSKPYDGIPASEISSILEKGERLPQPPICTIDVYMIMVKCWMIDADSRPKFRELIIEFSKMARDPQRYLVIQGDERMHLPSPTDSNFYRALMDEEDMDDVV
T28 sequence (P00533 with tags, fused parts or gaps DEL747-752/P753S limits assumed): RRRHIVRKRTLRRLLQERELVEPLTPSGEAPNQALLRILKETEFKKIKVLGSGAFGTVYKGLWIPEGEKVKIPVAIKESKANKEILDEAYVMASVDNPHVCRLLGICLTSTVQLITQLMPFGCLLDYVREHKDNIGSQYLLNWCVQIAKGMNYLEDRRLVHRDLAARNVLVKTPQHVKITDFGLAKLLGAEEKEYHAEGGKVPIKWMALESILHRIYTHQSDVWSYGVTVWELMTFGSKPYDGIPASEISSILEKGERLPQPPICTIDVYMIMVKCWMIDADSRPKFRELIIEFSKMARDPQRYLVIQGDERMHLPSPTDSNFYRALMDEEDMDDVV
T15 sequence (Q9UPE1 whole entry): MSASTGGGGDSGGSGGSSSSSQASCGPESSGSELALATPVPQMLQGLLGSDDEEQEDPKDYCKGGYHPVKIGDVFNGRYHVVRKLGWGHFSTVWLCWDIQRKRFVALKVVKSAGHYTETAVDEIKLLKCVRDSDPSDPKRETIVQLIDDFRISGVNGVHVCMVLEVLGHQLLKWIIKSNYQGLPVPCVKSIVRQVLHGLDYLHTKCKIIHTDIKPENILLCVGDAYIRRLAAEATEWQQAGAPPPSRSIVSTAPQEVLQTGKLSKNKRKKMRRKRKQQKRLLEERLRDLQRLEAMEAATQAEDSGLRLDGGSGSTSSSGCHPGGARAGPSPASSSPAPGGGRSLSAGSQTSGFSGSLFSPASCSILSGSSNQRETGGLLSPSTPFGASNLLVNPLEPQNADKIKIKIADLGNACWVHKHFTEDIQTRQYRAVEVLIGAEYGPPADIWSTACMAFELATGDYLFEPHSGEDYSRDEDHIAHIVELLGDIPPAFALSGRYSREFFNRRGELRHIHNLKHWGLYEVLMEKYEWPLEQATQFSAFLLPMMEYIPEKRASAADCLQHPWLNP
T8 sequence (Q9UIK4 whole entry): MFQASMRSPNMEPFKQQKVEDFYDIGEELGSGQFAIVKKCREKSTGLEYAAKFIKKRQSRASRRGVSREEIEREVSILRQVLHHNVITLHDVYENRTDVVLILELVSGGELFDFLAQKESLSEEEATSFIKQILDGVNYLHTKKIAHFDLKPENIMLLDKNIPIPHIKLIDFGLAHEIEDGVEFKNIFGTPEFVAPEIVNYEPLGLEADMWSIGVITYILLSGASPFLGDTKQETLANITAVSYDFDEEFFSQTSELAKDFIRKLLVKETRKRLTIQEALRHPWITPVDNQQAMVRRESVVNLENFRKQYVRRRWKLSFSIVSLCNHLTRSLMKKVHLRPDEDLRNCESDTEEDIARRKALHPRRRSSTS

With `Cc1cccc(-c2cnc3occ(-c4ccc(C(=O)O)c(C5CCCC5)c4)c3c2)c1` [Compound 5], the “plasma concentration / in vivo PK (in words)” value in series [1] is “poor in vivo PK”.

Take `Cc1cccc(-c2cnc3occ(-c4ccc(C(=O)O)c(C5CCCC5)c4)c3c2)c1` [SGC-CAMKK2-1 (YL-36)]: the remaining binding at 1 µM at PKAC-alpha is 100%; on TAOK3 it was 97%; in series [2], 87%; on PCTK2, 100%; on MTOR it was 98%; in series [3], 86%. The remaining binding at 1 µM at BLK is 70%; at DAPK2, 94%; at PRKCI it was 100%; at ABL2, 92%.

In the case of `O=C(O)c1ccc(-c2coc3ncc(-c4ccccc4)cc23)cc1Cl` [SGC-CAMKK2-1N (UNC-YL-83)], the remaining binding at 1 µM at STK33 was 100%; on CDK11 it was 56%; on ERBB3 it was 64%; at YANK3, 70%; on SRPK3, 100%; in [4], 89%. Moreover, the remaining binding at 1 µM on PRKCQ worked out at 100%; on ACVR1, 85%; at TAOK2, 78%; at MLK1 it was 82%; on JNK1 it was 81%; at PAK2, 78%. Besides, the remaining binding at 1 µM on ACVR2A amounted to 72%; at PDGFRB it was 92%; at MST2, 79%; in series [5], 68%; at LATS1, 83%; in series [6] it was 100%.

Source of the values: publication PMC9856672, “SGC-CAMKK2-1: A Chemical Probe for CAMKK2” (Cells, 2023).
